The target of this test is T1, human Kv7.2 (Homo sapiens, UniProt O43526).
T1 construct: expressed in transfected cells
T1 sequence (O43526 whole entry): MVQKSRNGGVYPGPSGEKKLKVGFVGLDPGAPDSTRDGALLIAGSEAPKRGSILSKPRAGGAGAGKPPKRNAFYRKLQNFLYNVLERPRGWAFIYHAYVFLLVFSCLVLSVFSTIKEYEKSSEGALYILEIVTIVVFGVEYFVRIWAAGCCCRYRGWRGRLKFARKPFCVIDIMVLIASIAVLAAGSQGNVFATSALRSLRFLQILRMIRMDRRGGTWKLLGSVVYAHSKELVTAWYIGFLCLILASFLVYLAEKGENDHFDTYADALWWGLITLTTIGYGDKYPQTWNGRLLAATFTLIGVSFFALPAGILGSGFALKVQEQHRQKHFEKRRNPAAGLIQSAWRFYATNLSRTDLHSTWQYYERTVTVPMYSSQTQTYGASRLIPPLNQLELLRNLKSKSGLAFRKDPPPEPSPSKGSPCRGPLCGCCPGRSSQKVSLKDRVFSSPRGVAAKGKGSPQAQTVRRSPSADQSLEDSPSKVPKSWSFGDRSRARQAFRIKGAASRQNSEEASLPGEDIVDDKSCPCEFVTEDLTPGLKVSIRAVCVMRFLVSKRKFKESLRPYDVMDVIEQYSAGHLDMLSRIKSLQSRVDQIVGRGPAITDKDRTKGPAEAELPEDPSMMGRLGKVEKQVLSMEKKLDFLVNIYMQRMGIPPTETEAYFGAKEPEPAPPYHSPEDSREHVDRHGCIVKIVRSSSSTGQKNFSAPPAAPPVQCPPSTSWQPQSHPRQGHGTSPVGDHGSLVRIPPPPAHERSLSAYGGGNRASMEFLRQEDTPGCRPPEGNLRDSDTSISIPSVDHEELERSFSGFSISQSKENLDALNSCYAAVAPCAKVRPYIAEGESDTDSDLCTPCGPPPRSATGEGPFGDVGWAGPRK
Kind of test: activation (potentiation) of Kv7.2 current, SyncroPatch 384 electrophysiology in CHO cells stably expressing human Kv7.2. It counts as cell-based. Particulars: human Kv7.2 in CHO cells; in presence of 5.6 μM zinc pyrithione; % activation relative to 30 μM ML-213. The protocol: The potency of Kv7 potentiators was determined using the SyncroPatch 384 (Nanion) high throughput electrophysiology platform.
CHO cells stably expressing either human Kv7.2, Kv7.4 or Kv7.5/7.3 under a constitutive CMV promoter were used for these studies. Cells were maintained in F12 Hams+1 mM L-glutamine (Hyclone) supplemented with 10% FBS (Sigma), 0.3×NEAA (Non-essential Gamino-acids) and 400 ug/ml G418 at 37° C. in 5% CO2. Cells were cultured in T-225 flasks (Nunc) for 2-3 days to reach 85-95% confluence prior to electrophysiological recording.
Earle's balanced salt solution (in mM): 135 NaCl, 5.4 KCl, 5 Glucose, 2 CaCl2), 1 MgCl2, 5 HEPES, pH 7.4. Seal enhancer solution (in mM): 90 NaCl, 3 KCl, 35 CaCl2), 10 MgCl2, 10 HEPES, pH 7.4. Extracellular recording solution (in mM): 71 NaCl, 70 NMDG, 13 KCl. 5 Glucose, 2 CaCl2, 1 MgCl2, 10 HEPES, pH 7.4. Intracellular recording solution (in mM): 130 KF, 20 KCl, 4 EGTA, 10 HEPES, 2 EDTA, 0.01 Escin, pH 7.2.
Cells were harvested for electrophysiological recording upon reaching appropriate confluence. Cells were first washed in DPBS (Hyclone, Cat #SH30028.03) and then 2 ml of Accutase (MP Biomedicals #1000449) was added at 28° C. until ~90% of cells were suspended. F12 HAM's media+1 mM L-glutamine (Hyclone, SH30026.02) was then added to the flask to dilute the accutase. Cells were then triturated until a single cell suspension was achieved, a cell count was performed, and cells were centrifuged for 2 min. at 1,000 rpm. Media was then aspirated, and cells were resuspended in Earle's balanced salt solution to a concentration of 0.75×10^6 cells/ml and allowed to recover for 25 min at 10° C.
At the beginning of each assay, 20 μl of cell suspension was dispensed into each well of a multi-hole 384-well SyncroPatch chip by the onboard pipettor. Cell sealing was initiated, and seal enhancer solution was added to facilitate seal formation. Upon completion of sealing, cells were washed 3 times with extracellular recording solution and the assay voltage protocol was started. Human Kv7.2, Kv7.4 or Kv7.5/7.3 channels were evaluated using a voltage protocol in which cells were voltage-clamped at a holding potential of −60 mV. Potassium currents were continuously activated with a series of three voltage steps to −30 mV for 3 seconds, 40 mV for 1 second and −90 mV for 4 seconds with 12 seconds between successive voltage sweeps. Potassium currents were measured from the −90 mV repolarizing step. Baseline current was assessed for 3.5 minutes prior to the addition of 5.6 μM zinc pyrithione (1 μM for Kv7.4). Kv7.2, Kv7.4 or Kv7.5/7.3 current in the presence of zinc pyrithione was acquired over five minutes to allow channels to reach steady state activity prior to addition of test agents. Channel activity was monitored for three minutes preceding the addition of 30 μM ML-213 (3 minutes) to achieve maximum activation. 150 mM TEA with 10 μM XE-991 was applied for 2 minutes to measure the leak current during maximum inhibition of Kv7.2, Kv7.4 or Kv7.5/7.3 channels.
Data were collected on the SyncroPatch platform using PatchControl software (Nanion) and processed and analyzed using DataControl Software (Nanion). Percent activation was calculated from potassium current as follows: The average current for the 5 sweeps in the presence of zinc pyrithione immediately preceding test agent addition was taken as the ‘control’ data. Likewise, the average potassium current in the presence of test agents 5 sweeps immediately preceding addition of 30 μM ML-213 was determined for ‘drug’ data. The average potassium current 5 sweeps immediately prior to addition of 150 mM TEA+10 μM XE-991 was determined for ‘max activation’ data while average currents from 5 sweeps immediately following addition of TEA was determined for ‘max inhibition’ data. Percent activation for each of the 384-wells of a sealchip was calculated as ((‘drug’−‘max inhibition’)/(‘max activation’−‘max inhibition’))*100 with Pipeline Pilot (Accelrys). […]
A general note: In patch-clamp work, channel activity is measured electrically.
As to `CC(C)(C)O[C@H]1C[C@@H]1C(=O)NC[C@@]1(c2cccc(C#N)c2)CCO1` (mixture of isomers) [Example 114, (1SR,2SR)-2-tert-butoxy-N-[[(2S)-2-(3-cyanophenyl)oxetan-2-yl]methyl]cyclopropanecarboxamide], the EC50 was determined as 7.52 µM.

Turning to `COC(CNC(=O)Nc1cccc(C)c1)c1cccc(Cl)c1` (centres unmarked) [Example 22, 1-[2-(3-chlorophenyl)-2-methoxy-ethyl]-3-(m-tolyl)urea], the EC50 worked out at 1.99 µM.

In the case of `CC#C[C@@H]1C[C@@H]1C(=O)NC[C@@]1(c2cccc(C#N)c2)CCO1` (mixture of isomers) [Example 137, (1SR,2RS)—N-[[(2S)-2-(3-cyanophenyl)oxetan-2-yl]methyl]-2-prop-1-ynyl-cyclopropanecarboxamide], the EC50 turned out to be 1.11 µM.

Take `N#Cc1cccc(C2(CNC(=O)[C@H]3C[C@@H]3c3ccccc3)COC2)c1` [Example 85, (1S,2S)—N-[[3-(3-cyanophenyl)oxetan-3-yl]methyl]-2-phenyl-cyclopropanecarboxamide]: the EC50 turned out to be 1.14 µM.

For `O=C(CC1CCCCC1)NCC1(c2ccnc(OC(F)F)c2)CCO1` (centres unmarked) [Example 117, 2-cyclohexyl-N-[[2-[2-(difluoromethoxy)-4-pyridyl]oxetan-2-yl]methyl]acetamide], the EC50 came out at 4.33 µM.

As to `O=C(NCC(OC1CC1)c1cccc(Cl)c1)NC1CCCC1` (centres unmarked) [Example 18, 1-[2-(3-chlorophenyl)-2-(cyclopropoxy)ethyl]-3-cyclopentyl-urea], the EC50 was determined as 4.58 µM.

For the molecule `O=C(NCC1(c2ccnc(OC(F)F)c2)CCO1)[C@H]1CC12CCCCC2` (stereo in doubt) [Example 122, N-[[2-[2-(difluoromethoxy)-4-pyridyl]oxetan-2-yl]methyl]spiro[2.5]octane-2-carboxamide], the EC50 worked out at 0.39 µM.

On to `O=C(CC1CCCCC1)N[C@H]1C[C@H](c2cccc(Cl)c2)C1` [Example 56, N-[3-(1r,3r)-(3-chlorophenyl)cyclobutyl]-2-cyclohexyl-acetamide], for which the EC50 came out at 3.19 µM.

As to `N#Cc1cccc(C2(CNC(=O)CC3CCCCC3)CCC(=O)O2)c1` (centres unmarked) [Example 90, N-[[2-(3-cyanophenyl)-5-oxo-tetrahydrofuran-2-yl]methyl]-2-cyclohexyl-acetamide], the EC50 was 0.96 µM.

On to `O=C(NC[C@@]1(c2cccc(Cl)c2)OCC1(F)F)[C@H]1C[C@@H]1c1ccccc1` (stereo in doubt) [Example 41, (1S,2S)-N-[[(2R)-2-(3-chlorophenyl)-3,3-difluoro-oxetan-2-yl]methyl]-2-phenyl-cyclopropanecarboxamide], for which the EC50 was 0.05 µM.

As for `N#Cc1cccc([C@]2(CNC(=O)CC3(O)CC4CCC3C4)CCO2)c1` (stereo partly drawn) [Example 111, N-[[(2S)-2-(3-cyanophenyl)oxetan-2-yl]methyl]-2-(2-hydroxynorbornan-2-yl)acetamide], the EC50 amounted to 2.01 µM.

Consider `CC#C[C@H]1C[C@@H]1C(=O)NC[C@@]1(c2cccc(C#N)c2)CCO1` (mixture of isomers) [Example 134, (1SR,2SR)—N-[[(2S)-2-(3-cyanophenyl)oxetan-2-yl]methyl]-2-prop-1-ynyl-cyclopropanecarboxamide], for which the EC50 amounted to 1.7 µM.

Regarding `O=C(NCC(OCC(F)(F)F)c1cccc(Cl)c1)NC1C[C@H]2CC[C@@H]1C2` (mixture of isomers) [Example 45, 1-[2-(3-chlorophenyl)-2-(2,2,2-trifluoroethoxy)ethyl]-3-[rac-(1R,4S)-norbornan-2-yl]urea], the 50% effective concentration (EC50) is 0.79 µM.

Turning to `COC(CNC(=O)NC1CC2CCC1C2)c1cccc(Cl)c1` (centres unmarked) [Example 4, 1-[2-(3-chlorophenyl)-2-methoxy-ethyl]-3-norbornan-2-yl-urea], the EC50 stood at 0.5 µM.

Take `O=C(N[C@H]1C[C@@H]2CC[C@H]1C2)N[C@H]1C[C@H](c2cccc(Cl)c2)C1` (racemic) [Example 38, 1-[3-(1r,3r)-(3-chlorophenyl)cyclobutyl]-3-[(1SR,2SR,4RS)-norbornan-2-yl]urea]: the EC50 came to 0.83 µM.

In the case of `O=C(CC1CCCCC1)NCC1(c2cccc(Cl)c2)CCO1` (centres unmarked) [Example 57, N-[[2-(3-chlorophenyl)oxetan-2-yl]methyl]-2-cyclohexyl-acetamide], the EC50 came to 0.43 µM.

For `O=C(NCc1cccc(Cl)c1)NCC1(c2cccc(Cl)c2)CCO1` (centres unmarked) [Example 62, 1-[(3-chlorophenyl)methyl]-3-[[2-(3-chlorophenyl)oxetan-2-yl]methyl]urea], the EC50 turned out to be 0.42 µM.

Turning to `O=C(NCC1(c2cccc(Cl)c2)CCO1)Nc1cccc(Cl)c1` (centres unmarked) [Example 58], the EC50 was determined as 0.81 µM.

For `COc1ccc(CCNC(=O)NCC(C)(OC)c2cccc(Cl)c2)cc1` (centres unmarked) [Example 34, 1-[2-(3-chlorophenyl)-2-methoxy-propyl]-3-[2-(4-methoxyphenyl)ethyl]urea], the EC50 was determined as 3.94 µM.

As for `N#Cc1cccc([C@]2(CNC(=O)CC3CC4(CCC4)C3)CCO2)c1` [Example 116, N-[[(2S)-2-(3-cyanophenyl)oxetan-2-yl]methyl]-2-spiro[3.3]heptan-2-yl-acetamide], the EC50 was 0.61 µM.

As for `COC(C)(CNC(=O)[C@H]1C[C@@H]1c1ccccc1)c1cccc(Cl)c1` (mixture of isomers) [Example 1, rac-(1S,2S)-N-[2-(3-chlorophenyl)-2-methoxy-propyl]-2-phenyl-cyclopropanecarboxamide], the EC50 stood at 0.17 µM.

Consider `CO[C@@](C)(CNC(=O)C1CC12CCOCC2)c1cccc(Cl)c1` (stereo partly drawn) [Example 84, N-[(2R)-2-(3-chlorophenyl)-2-methoxy-propyl]-6-oxaspiro[2.5]octane-2-carboxamide], for which the EC50 worked out at 0.13 µM.

For `N#Cc1cccc([C@]2(CNC(=O)C3CCC34CCC4)CCO2)c1` (stereo partly drawn) [Example 100, N-[[(2S)-2-(3-cyanophenyl)oxetan-2-yl]methyl]spiro[3.3]heptane-3-carboxamide], the EC50 was 9.76 µM.

For the molecule `COC(C)(CNC(=O)/C=C/c1ccccc1F)c1cccc(Cl)c1` (centres unmarked) [Example 47, (E)-N-[2-(3-chlorophenyl)-2-methoxy-propyl]-3-(2-fluorophenyl)prop-2-enamide], the EC50 was determined as 7.51 µM.

In the case of `O=C(NC[C@]1(c2cccc(Cl)c2)CCO1)[C@H]1C[C@@H]1c1ccccc1` [Example 39, (1S,2S)-N-[[(2R)-2-(3-chlorophenyl)oxetan-2-yl]methyl]-2-phenyl-cyclopropanecarboxamide], the EC50 came out at 0.73 µM.

As for `O=C(NCC1(c2ccnc(OC(F)F)c2)CCO1)[C@H]1C[C@@H]1c1ccccc1` (stereo partly drawn) [Example 67, (1S,2S)-N-[[2-[2-(difluoromethoxy)-4-pyridyl]oxetan-2-yl]methyl]-2-phenyl-cyclopropanecarboxamide], the EC50 turned out to be 0.41 µM.

`N#Cc1cccc([C@]2(CNC(=O)CC34CCC(CC3)C4)CCO2)c1` [Example 109, N-[[(2S)-2-(3-cyanophenyl)oxetan-2-yl]methyl]-2-norbornan-1-yl-acetamide]: the EC50 is 0.71 µM.

As for `O=C(NCC1(c2cccc(OC(F)F)n2)CCO1)C1CC12CCOCC2` (centres unmarked) [Example 115, N-[[2-[6-(difluoromethoxy)-2-pyridyl]oxetan-2-yl]methyl]-6-oxaspiro[2.5]octane-2-carboxamide], the half-maximal effective concentration (EC50) turned out to be 2.82 µM.

Regarding `COc1cccc(NC(=O)NC[C@](C)(OC)c2cccc(Cl)c2)c1` [Example 17, 1-[(2R)-2-(3-chlorophenyl)-2-methoxy-propyl]-3-(3-methoxyphenyl)urea], the EC50 was 1.67 µM.

A word on the EC50: it is the concentration at which the effect is half-maximal.

The values are drawn from patent US20260308149A1, “NOVEL CARBOXAMIDE DERIVATIVES” (ANGELINI PHARMA S.P.A., priority 2023, published 2026).
